From PubChem BioAssay (NCI)
Values joined by “and” are separate entries in the source; they are usually repeats but may differ in a detail not shown here. Identical values can stand only once.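 Tested at 5 concentrations; 48 h exposure; 96-well plates; endpoints linearly interpolated, else capped at highest concentration. GI50: concentration for 50% inhibition of growth. TGI is the concentration that stops growth completely.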

Tested on: MDA-MB-468 breast
Assay: growth of human tumour cells (NCI), 48 h

Structure (SMILES)	GI50	TGI
COc1ccc(C2CC(=O)Nc3c2c(C)nn3-c2nc3ccccc3[nH]2)cc1OC (configuration not stated)	3090 nM	16800 nM
O=C(/C=C/c1cc2ccccc2[nH]c1=O)c1ccc(O)cc1	2120 nM	5300 nM
c1ccc2c(c1)CCCc1nnc3nc4ccccc4n3c1-2	6550 nM	74700 nM
O=C(COc1ccc(Cl)cc1Cl)NNc1ccc([N+](=O)[O-])cc1	37500 nM	> 100000 nM
Cc1ccccc1N=C(c1ccccc1)C1C(=O)c2ccccc2C1=O	6220 nM	> 100000 nM
COc1cc2cc(C(=O)Nc3ccccc3)c(N)nc2cc1OC	21900 nM	> 100000 nM
CCN1C(=O)N(CC)C2C1NN=c1s/c(=C\c3ccc(Br)cc3)c(=O)n12 (configuration not stated)	69.7 nM	516 nM
Nc1cc2c3ccccc3ccc2c2ccccc12	> 100000 nM	> 100000 nM
Cn1cc(-c2[nH]c3cc(NC(=O)[C@H](N)C4CCCCC4)cc4c3c2C=NNC4=O)cn1	164 nM and 503 nM	827 nM and > 5300 nM
C[C@H]1O[C@@H](O[C@H]2[C@@H](O)C[C@H](O[C@H]3[C@@H](O)C[C@H](O[C@H]4CC[C@]5(C)C6CC[C@]7(C)[C@@H](C8=CC(=O)OC8)CC[C@]7(O)C6CC[C@@H]5C4)O[C@@H]3C)O[C@@H]2C)C[C@H](O)[C@@H]1O (some centres not stated)	66.7 nM	202 nM
COc1cc(/C=C/[N+](=O)[O-])cc(OC)c1	1640 nM	3530 nM
Cc1cc(C(=O)NOCCO)c(Nc2ccc(I)cc2F)n(C)c1=O	> 10000 nM and 68200 nM	> 100000 nM
COc1cccc(/C=C/C(=O)c2cc3c(N)c(C(=O)Nc4ccccc4)sc3nc2C)c1	906 nM	1840 nM
Fc1ccc(Nc2ccnc(N3CCN(c4ccnc5cc(Cl)ccc45)CC3)n2)cc1	2410 nM	19300 nM
Nc1nc(N)c2c(n1)NC(c1ccc(Cl)cc1)C1CCc3ccccc3C1=N2 (configuration not stated)	1600 nM	14500 nM
CC1(/C=C/c2ccc(-c3ccccc3)cc2)CCn2cnc3ncnc(c32)N1O (configuration not stated)	276 nM	872 nM
CNC(=O)c1cc(Oc2ccc(NC(=O)Nc3ccc(Cl)c(C(F)(F)F)c3)cc2)ccn1	1420 nM and 2030 nM and 2090 nM	7910 nM and 8050 nM and 7700 nM
O=C(Nc1n[nH]c2cc(-c3ccc(F)cc3)ccc12)C1CC1	3420 nM	> 16200 nM
COc1ccc(COc2ccc(Cc3cnc(N)nc3N)cc2OC)cc1	3270 nM	19600 nM
C#Cc1cccc(NC(=O)C2CCCCN2C(=O)CCl)c1 (configuration not stated)	11200 nM	34100 nM
Cn1cc(-c2nc(-c3c[nH]c4ccccc34)cs2)c2cccnc21	252 nM	827 nM

Structure (SMILES)	GI50	TGI
COc1ccc(CNCCN2C(=O)c3ccc4c5c(ccc(c35)C2=O)C(=O)N(CCNCc2ccc(OC)c(OC)c2OC)C4=O)c(OC)c1OC	82.2 nM	164 nM
c1ccc(OCC[P+](c2ccccc2)(c2ccccc2)c2ccccc2)cc1	152 nM	736 nM
Cc1cccc(Nc2ncc(-c3ccccc3)o2)c1	7050 nM	> 25000 nM
COC1C[C@H](O[C@@H]2C[C@H](O[C@@H]3C[C@H](O[C@@H]4C(=O)c5c(cc6cc(O[C@H]7C[C@@H](O[C@H]8C[C@@H](O)[C@H](O)C(C)O8)[C@H](O)C(C)O7)c(C)c(O)c6c5O)C[C@H]4C(OC)C(=O)[C@@H](O)[C@@H](C)O)OC(C)[C@H]3O)OC(C)[C@@H]2O)OC(C)[C@@H]1O (some centres not stated)	109 nM	723 nM
O=c1[nH]c(=O)n(C2C[C@@H](O)[C@@H](CO)O2)cc1F (some centres not stated)	44.4 nM	36300 nM
CCCCCCCN(CCCCCCC)C(=N)c1ccc(OC)c2ccccc12	1230 nM	2810 nM
C=C1C(=O)O[C@H]2[C@H]1CC/C(COC(=O)NCCc1ccc(Br)cc1)=C\CC[C@@]1(C)O[C@@H]21	841 nM	2470 nM
Cc1c(-c2c(F)cc(C(N)=O)c3[nH]c4c(c23)CC[C@H](C(C)(C)O)C4)cccc1-n1c(=O)c2cccc(F)c2n(C)c1=O	3060 nM	> 100000 nM
O=C1NC(=O)/C(=C/c2ccc3nccc(-c4ccncc4)c3c2)S1	185 nM	1170 nM
CN1CCN(CCCn2c3c(sc4ncccc43)c(=O)n3nnc(-c4ccccc4)c23)CC1	1720 nM	3250 nM
Clc1ccc(Nc2nnc(COc3ccccc3)c3ccccc23)cc1	1490 nM	7620 nM
COc1cc2cc(Oc3ccc(NC(=O)c4cccc(C(F)(F)F)c4)cc3)c(C)nc2cc1OCCN1CCCCC1	14100 nM	29100 nM
COc1ccc(N2CCN(c3nc(-c4ccccn4)nc4sc5c(c34)CCCCCC5)CC2)cc1	4110 nM	> 100000 nM
CC(=O)OCc1cc[c]([Hg][Cl])o1	1500 nM	3440 nM
O=C(Nc1c(Cl)cccc1Cl)Oc1cccc2cccnc12	2910 nM	13900 nM
COc1cc(N2CCN(C(C)C)CC2)ccc1Nc1nc(Nc2ccc(F)cc2C(N)=O)c2cc[nH]c2n1	999 nM	5490 nM
CS(=O)(=O)Nc1cc(-c2ccc3ncnc(Nc4ccc(OCc5ccccn5)c(Cl)c4)c3c2)cnc1Cl	156 nM	780 nM
O=C(Nc1ccc([N+](=O)[O-])cc1Cl)c1cc(Cl)ccc1O	121 nM and 260 nM	388 nM and 782 nM
O=[N+]([O-])c1ccc(NC(c2ccccc2)c2ccc3cccnc3c2O)cc1 (configuration not stated)	363 nM	2050 nM
O=C(Nc1cccc(Cl)c1)Nc1cc(C(F)(F)F)ccc1Cl	1990 nM	4730 nM
